Test results as given in patent US5639783A, “Ketone derivatives” (Mitsubishi Chemical Corporation, priority 1991, dated 1997).
Where two headings read alike, the source gives them in different places.

Tests used:
Assay type in all cases: biochemical
papain = biological target: T1, papain (Carica papaya, UniProt P00784); test: Thiol protease inhibitory activity, papain (P-3125, Sigma)
T1 sequence (P00784 134-345): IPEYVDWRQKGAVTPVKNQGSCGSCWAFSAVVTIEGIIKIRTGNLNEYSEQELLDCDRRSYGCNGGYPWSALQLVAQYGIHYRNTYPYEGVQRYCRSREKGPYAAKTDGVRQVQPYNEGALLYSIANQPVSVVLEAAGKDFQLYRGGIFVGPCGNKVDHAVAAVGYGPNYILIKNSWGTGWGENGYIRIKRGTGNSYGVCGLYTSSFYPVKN
Description: (§1) Inhibitory activity against papain (P-3125, Sigma) and cathepsin B (C-6286, Sigma) was assayed according to the method described in a literature [Biochemical Journal, 201, 189 (1982)]. Cathepsin L was purified from rat kidney according to the method in a literature [Journal of Biochemistry, 100, 35 (1986)], and the inhibitory activity against it was assayed in the same manner as described in the above literature for cathepsin B. Furthermore, m-calpain was purified from rat brain according to a known method [Journal of Biological Chemistry, 254, p. 3210 (1984)] and the inhibitory activity against it was assayed by a method described in a literature [Journal of Biological Chemistry, 259, 12489 (1984)]. It is evident from Tables 3 and 4 that the compounds of the present invention have a potent inhibitory activity against thiol proteases such as papain, cathepsin B, cathepsin L or m-calpain.

m-calpain = biological target: T2, m-calpain (Rattus norvegicus, UniProt Q07009); test: Thiol protease inhibitory activity, m-calpain purified from rat brain
T2 construct: m-calpain was purified from rat brain; from tissue; host or cells: rat brain
T2 sequence (Q07009 20-700 limits assumed): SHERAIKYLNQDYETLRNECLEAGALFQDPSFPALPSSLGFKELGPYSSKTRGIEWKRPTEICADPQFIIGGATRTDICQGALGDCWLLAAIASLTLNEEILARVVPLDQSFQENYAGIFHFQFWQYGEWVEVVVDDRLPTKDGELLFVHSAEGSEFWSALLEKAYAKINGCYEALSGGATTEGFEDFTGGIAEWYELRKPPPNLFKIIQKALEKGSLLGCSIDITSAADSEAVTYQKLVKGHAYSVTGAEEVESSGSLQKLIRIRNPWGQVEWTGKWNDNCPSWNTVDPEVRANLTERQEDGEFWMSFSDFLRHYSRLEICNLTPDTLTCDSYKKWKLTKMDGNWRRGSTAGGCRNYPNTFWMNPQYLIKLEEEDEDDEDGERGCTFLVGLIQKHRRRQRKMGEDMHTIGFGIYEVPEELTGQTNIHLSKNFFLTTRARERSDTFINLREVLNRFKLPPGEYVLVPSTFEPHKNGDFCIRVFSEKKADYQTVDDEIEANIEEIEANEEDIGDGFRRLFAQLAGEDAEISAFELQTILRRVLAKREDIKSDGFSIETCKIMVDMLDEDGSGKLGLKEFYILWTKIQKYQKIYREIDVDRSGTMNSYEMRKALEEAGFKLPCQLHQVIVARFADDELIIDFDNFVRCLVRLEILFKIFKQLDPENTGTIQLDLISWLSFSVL
T2 sequence (Q64537 1-270 partner): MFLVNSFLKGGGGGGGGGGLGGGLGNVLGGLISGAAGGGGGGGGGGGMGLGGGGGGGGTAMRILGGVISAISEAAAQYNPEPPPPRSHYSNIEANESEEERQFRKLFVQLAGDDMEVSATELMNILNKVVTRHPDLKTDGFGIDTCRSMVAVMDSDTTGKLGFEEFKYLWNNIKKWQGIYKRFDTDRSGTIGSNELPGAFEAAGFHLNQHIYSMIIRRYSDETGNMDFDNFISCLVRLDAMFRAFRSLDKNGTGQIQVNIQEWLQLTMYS
Description: as §1

cathepsin B = biological target: T3, cathepsin B (Bos taurus, UniProt P07688); test: Thiol protease inhibitory activity, cathepsin B (C-6286, Sigma); conditions: Table 3
T3 construct: purchased Sigma C-6286
Description: as §1

cathepsin L = biological target: T4, cathepsin L (Rattus norvegicus, UniProt P07154); test: Thiol protease inhibitory activity, cathepsin L purified from rat kidney; conditions: Table 3
T4 construct: Cathepsin L was purified from rat kidney; from tissue; host or cells: rat kidney
Description: as §1

T4 sequence (P07154 114-334): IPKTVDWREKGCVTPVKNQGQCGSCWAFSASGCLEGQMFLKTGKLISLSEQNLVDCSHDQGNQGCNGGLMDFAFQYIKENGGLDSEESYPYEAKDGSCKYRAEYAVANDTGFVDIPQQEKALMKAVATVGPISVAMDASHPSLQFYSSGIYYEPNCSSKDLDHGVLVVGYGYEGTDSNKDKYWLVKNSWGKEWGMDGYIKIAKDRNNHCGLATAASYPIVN

SMILES | IC50 (papain; Table 3, read-out: IC50 papain) [µM] | IC50 (m-calpain; Table 3) [µM] | IC50 (cathepsin B) [µM] | IC50 (cathepsin L) [µM] | IC50 (papain) [µM] | IC50 (m-calpain; Table 4) [µM]
CCCC[C@H](NC(=O)[C@H](CC(C)C)NC(=O)COc1cccc(Cl)c1Cl)C(=O)CSCc1ccco1 [41 (No. 91), (s)-3-[(s)-2-(2,3-dichlorophenoxyacetylamino)-4-methylvalerylamino]-1-furfurylthio-2-heptanone] | 21 | 14 | 5.7 | 1.1 |  | 
CCCC[C@H](NC(=O)[C@H](CC(C)C)NC(=O)COc1ccccc1F)C(=O)CSCc1ccco1 [36 (No. 85), (s)-3-[(s)-2-(2-fluorophenoxyacetylamino)-4-methylvalerylamino]-1-furfurylthio-2-heptanone] | 26 | 25 | 4.9 | 1.3 |  | 
CC(C)C[C@H](NC(=O)COc1ccccc1)C(=O)N[C@@H](CC1CCCCC1)C(=O)CSCc1ccco1 [110 (No. 240), (s)-4-cyclohexyl-1-furfurylthio-3-((s)-4-methyl-2-phenoxyacetylaminovalerylamino)-2-butanone] |  | 6 | 3.3 | 0.98 | 21 | 
CC(C)C[C@H](NC(=O)Cc1cccc2ccccc12)C(=O)N[C@@H](Cc1ccccc1)C(=O)CSCc1ccco1 [159 (No. 333), (s)-1-furfurylthio-3-[(s)-4-methyl-2-(l-naphtylacetylamino)valerylamino]-4-phenyl-2-butanone] | 0.38 | 1.9 | 0.75 | 1.1 |  | 
CC(C)C[C@H](NC(=O)COc1ccccc1)C(=O)NC(Cc1cccc2ccccc12)C(=O)CSCc1ccco1 (stereo partly drawn) [209 (No. 555), l-furfurylthio-3-((s)-4-methyl-2-phenoxyacetylaminovalerylamino)-4-(1-naphtyl)-2-butanone] | 9 | 19 | 6.5 | 1.5 |  | 
CCCC[C@H](NC(=O)[C@H](CC(C)C)NC(=O)c1ccccc1)C(=O)CSCc1ccco1 [54 (No. 116), (s)-3-((s)-2-benzoylamino-4-methylvalerylamino)-1-furfurylthio-2-heptanone] | 0.38 | 14 | 0.88 | 0.25 |  | 
CCCC[C@H](NC(=O)[C@H](CC(C)C)NC(=O)Cc1ccccc1)C(=O)CSCc1ccco1 [30 (No. 66), (s)-1-furfurylthio-3-((s)-4-methyl-2-phenylacetylaminovalerylamino)-2-heptanone] |  | 5.1 | 0.59 |  | 0.15 | 
CCCC[C@H](NC(=O)[C@H](CC(C)C)NC(=O)COC1CCCCC1)C(=O)CSCc1ccco1 [35 (No. 81), (s)-3-((s)-2-cyclohexyloxyacetylamino-4-methylvalerylamino)-1-furfurylthio-2-heptanone] | 0.21 | 8.6 | 0.7 | 1.1 |  | 
CC(C)C[C@H](NC(=O)C(C)Oc1ccccc1)C(=O)N[C@@H](Cc1ccccc1)C(=O)CSCc1ccco1 (some centres unmarked) [165 (No. 349), (s)-1-furfurylthio-3-[(s)-4-methyl-2-(2-phenoxypropionylamino)valerylamino]-4-phenyl-2-butanone] | 9.2 | 13 | 7 | 1.9 |  | 
CC(C)C[C@H](NC(=O)OCc1ccccn1)C(=O)N[C@@H](Cc1ccccc1)C(=O)CSCc1ccco1 [150 (No. 313), (s)-1-furfurylthio-3-[(s)-4-methyl-2-(2-pyridylmethoxycarbonylamino)valerylamino]-4-phenyl-2-butanone] | 91 | 5.4 | 1.1 | 0.27 |  | 
CSCC(=O)[C@H](Cc1ccccc1)NC(=O)[C@H](CC(C)C)NC(=O)Cc1cccc2ccccc12 [120 (No. 256), (s)-3-[(s)-4-methyl-2-(1-naphtylacetylamino)valerylamino]-1-methylthio-4-phenyl-2-butanone] | 56 | 26 | 3.9 | 0.49 |  | 
CC(C)C[C@H](NC(=O)Cc1ccc2ccccc2c1)C(=O)N[C@@H](Cc1ccccc1)C(=O)CSCc1ccco1 [160 (No. 334), (s)-1-furfurylthio-3-[(s)-4-methyl-2-(2-naphtylacetylamino)valerylamino]-4-phenyl-2-butanone] | 35 | 28 | 3.3 | 6.6 |  | 
CCCC[C@H](NC(=O)[C@H](CC(C)C)NC(=O)COc1ccccc1Cl)C(=O)CSCc1ccco1 [39 (No. 88), (s)-3-[(s)-2-(2-chlorophenoxyacetylamino)-4-methylvalerylamino]-1-furfurylthio-2-heptanone] | 0.25 | 2.2 | 0.29 |  |  | 
CCCC[C@H](NC(=O)[C@H](CC(C)C)NC(=O)COc1cccc2ccccc12)C(=O)CSCc1ccco1 [52 (No. 114), (s)-1-furfurylthio-3-[-(s)-4-methyl-2-(1-naphtoxyacetylamino)valerylamino]-2-heptanone] | 0.34 | 2.5 | 0.82 |  |  | 
CCCC[C@H](NC(=O)[C@H](CC(C)C)NC(=O)c1ccccc1C)C(=O)CSCc1ccco1 [69 (No. 140), (s)-1-furfurylthio-3-[(s)-4-methyl-2-(2-toluoylamino)valerylamino]-2-heptanone] |  |  |  |  |  | 5
CCCC[C@H](NC(=O)[C@H](CC(C)C)NC(=O)C1CCCCC1)C(=O)CSCc1ccco1 [29 (No. 65), (s)-3-((s)-2-cyclohexylcarbonylamino-4-methylvalerylamino)-1-furfurylthio-2-heptanone] |  |  |  |  |  | 3.6
CCCC[C@H](NC(=O)[C@H](CC(C)C)NC(=O)OCc1cccc(C#N)c1)C(=O)CSCc1ccco1 [26 (No. 57), (s)-3-[(s)-2-(3-cyanobenzyloxycarbonylamino)-4-methylvalerylamino]-1-furfurylthio-2-heptanone] |  |  |  |  |  | 2.8
CCCC[C@H](NC(=O)[C@H](CC(C)C)NC(=O)C=Cc1ccc(OC)cc1OC)C(=O)CSCc1ccco1 [85 (No. 166)] |  |  |  |  |  | 1.3
CCCC[C@H](NC(=O)[C@H](CC(C)C)NC(=O)OCC1CCCCC1)C(=O)CSCc1ccco1 [21 (No. 46), (s)-3-((s)-2-cyclohexylmethoxycarbonylamino-4-methylvalerylamino)-1-furfurylthio-2-heptanone] | 0.13 | 4.7 | 0.14 |  |  | 
CCCC[C@H](NC(=O)[C@H](CC(C)C)NC(=O)c1cccc(F)c1)C(=O)CSCc1ccco1 [56 (No. 118), (s)-3-[(s)-2-(3-fluorobenzoylamino)-4-methylvalerylamino]-1-furfurylthio-2-heptanone] |  |  |  |  |  | 5.2
CC(C)C[C@H](NC(=O)OCc1ccccc1)C(=O)N[C@@H](Cc1ccccc1)C(=O)CSCc1ccc(Cl)s1 [183 (No. 423), (s)-3-((s)-2-benzyloxycarbonylamino-4-methylvalerylamino)-1-(5-chloro-2-thienylmethylthio)-4-phenyl-2-butanone] |  |  |  |  |  | 9.6
CC(C)C[C@H](NC(=O)Cc1csc2ccccc12)C(=O)N[C@@H](Cc1ccccc1)C(=O)CSCc1ccco1 [162 (No. 345), (s)-3-[(s)-2-(3-benzothienylacetylamino)-4-methylvalerylamino]-1-furfurylthio-4-phenyl-2-butanone] | 0.95 | 3.7 | 5.3 |  |  | 
